ChEMBL document CHEMBL3774364, “Synthesis of N-cyano-substituted sulfilimine and sulfoximine derivatives of S0859 and their biological evaluation as sodium bicarbonate co-transport inhibitors” (Medchemcomm, 2015)
Active and inactive are the calls of the source. The calls are words filed in the database; no cut-off is given here.

Assays:
[1] = target: T1, Sodium bicarbonate cotransporter 3 (Homo sapiens) (UniProt Q9Y6M7); assay: Inhibition of NBCn1 in human MCF7 cells assessed as decrease in Na(+) -dependent pHi recovery rate at 30 uM; format: cell-based
T1 sequence (whole entry): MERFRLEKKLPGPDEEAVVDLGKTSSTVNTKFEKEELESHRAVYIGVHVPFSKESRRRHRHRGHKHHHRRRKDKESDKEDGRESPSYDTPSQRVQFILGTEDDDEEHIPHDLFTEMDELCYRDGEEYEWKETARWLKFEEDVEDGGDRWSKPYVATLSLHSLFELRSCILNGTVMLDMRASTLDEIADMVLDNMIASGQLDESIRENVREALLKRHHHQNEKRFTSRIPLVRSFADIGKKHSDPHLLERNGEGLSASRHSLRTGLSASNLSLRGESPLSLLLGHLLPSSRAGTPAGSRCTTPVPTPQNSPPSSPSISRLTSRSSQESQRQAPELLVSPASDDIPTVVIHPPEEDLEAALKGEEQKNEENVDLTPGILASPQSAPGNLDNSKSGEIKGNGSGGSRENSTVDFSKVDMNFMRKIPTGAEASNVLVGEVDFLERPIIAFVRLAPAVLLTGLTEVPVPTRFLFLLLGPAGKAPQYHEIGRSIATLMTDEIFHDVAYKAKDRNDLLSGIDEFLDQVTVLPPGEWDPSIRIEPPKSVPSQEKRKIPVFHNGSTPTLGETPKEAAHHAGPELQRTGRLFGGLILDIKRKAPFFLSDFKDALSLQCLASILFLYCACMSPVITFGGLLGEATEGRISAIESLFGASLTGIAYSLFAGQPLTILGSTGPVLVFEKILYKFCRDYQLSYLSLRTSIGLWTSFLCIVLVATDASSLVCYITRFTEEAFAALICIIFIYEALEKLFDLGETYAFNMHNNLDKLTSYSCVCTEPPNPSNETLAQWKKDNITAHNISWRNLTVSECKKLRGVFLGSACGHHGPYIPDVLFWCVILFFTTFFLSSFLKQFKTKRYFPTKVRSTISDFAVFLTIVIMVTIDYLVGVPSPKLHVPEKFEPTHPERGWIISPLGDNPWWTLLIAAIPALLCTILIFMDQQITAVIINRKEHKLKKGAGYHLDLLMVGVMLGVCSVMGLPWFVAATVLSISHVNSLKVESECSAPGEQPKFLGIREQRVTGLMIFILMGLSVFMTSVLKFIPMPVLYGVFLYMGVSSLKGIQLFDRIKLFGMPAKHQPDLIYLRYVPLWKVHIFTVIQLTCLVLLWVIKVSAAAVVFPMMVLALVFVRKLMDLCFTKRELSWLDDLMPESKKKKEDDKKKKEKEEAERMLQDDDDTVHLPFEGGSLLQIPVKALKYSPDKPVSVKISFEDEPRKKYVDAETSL

[2] = target: T2, Sodium bicarbonate cotransporter 3 (Mus musculus) (UniProt Q8BTY2); assay: Inhibition of NBCn1 in epithelial organoids from mouse ErbB2-overexpressing breast cancer tissue assessed as Na(+) -dependent pHi recovery rate at 30 uM
T2 sequence (whole entry): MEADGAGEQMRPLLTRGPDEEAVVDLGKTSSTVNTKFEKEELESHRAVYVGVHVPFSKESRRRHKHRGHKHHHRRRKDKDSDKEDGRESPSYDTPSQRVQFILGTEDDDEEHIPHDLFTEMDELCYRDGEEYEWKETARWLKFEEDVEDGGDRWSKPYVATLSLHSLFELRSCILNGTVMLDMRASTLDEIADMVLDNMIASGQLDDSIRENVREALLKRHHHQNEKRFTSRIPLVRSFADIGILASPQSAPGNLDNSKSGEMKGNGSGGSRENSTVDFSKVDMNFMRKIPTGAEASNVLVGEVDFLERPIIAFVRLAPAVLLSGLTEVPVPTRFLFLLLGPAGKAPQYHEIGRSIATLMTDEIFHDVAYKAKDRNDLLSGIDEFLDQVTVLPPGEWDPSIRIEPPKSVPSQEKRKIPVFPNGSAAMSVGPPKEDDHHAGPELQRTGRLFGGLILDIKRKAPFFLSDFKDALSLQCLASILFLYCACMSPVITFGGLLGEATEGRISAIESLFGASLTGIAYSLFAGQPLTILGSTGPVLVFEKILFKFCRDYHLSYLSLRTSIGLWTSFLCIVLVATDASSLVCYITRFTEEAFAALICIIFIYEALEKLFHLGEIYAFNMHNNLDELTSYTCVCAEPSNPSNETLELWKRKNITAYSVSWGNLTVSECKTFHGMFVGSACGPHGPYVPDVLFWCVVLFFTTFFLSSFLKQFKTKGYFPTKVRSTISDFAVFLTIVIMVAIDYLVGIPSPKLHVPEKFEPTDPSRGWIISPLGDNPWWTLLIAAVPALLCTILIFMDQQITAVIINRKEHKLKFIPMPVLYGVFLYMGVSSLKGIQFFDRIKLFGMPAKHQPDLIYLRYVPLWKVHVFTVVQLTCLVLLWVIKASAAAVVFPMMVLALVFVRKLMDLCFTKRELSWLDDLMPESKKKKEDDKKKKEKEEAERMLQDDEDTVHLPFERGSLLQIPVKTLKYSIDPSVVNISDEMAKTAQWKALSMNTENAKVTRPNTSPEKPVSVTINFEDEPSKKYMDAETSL

Compound	inhibition [1]	inhibition [2]
Cc1ccc(CN(Cc2ccc(-c3ccccc3/S(C)=N/C#N)cc2)C(=O)c2ccccc2Cl)cc1 (stereo unspecified)	inactive	inactive
Cc1ccc(CN(Cc2ccc(-c3ccccc3S(C)(=O)=NC#N)cc2)C(=O)c2ccccc2Cl)cc1 (stereo unspecified)	inactive	inactive
Cc1ccc(CN(Cc2ccc(-c3ccccc3S(=O)(=O)NC#N)cc2)C(=O)c2ccccc2Cl)cc1	45%	inactive
